Some test systems named below: SK-OV-3 ovarian; NCI-H23 lung; NCI-H226 lung; KM12 colon; SK-MEL-28 melanoma; UACC-62 melanoma; TK-10 renal; A549 NSCLC; SR leukemia; EKVX NSCLC.
Holding throughout (assay): NCI tumour cell line growth inhibition, 48 h

The source of these data is PubChem BioAssay (NCI).

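Values below derive from 48-hour exposures of cells grown in 96-well plates, with endpoints linearly interpolated between the two concentrations bracketing the appropriate inhibition level. GI50 is the concentration that inhibits growth by half. Definition used: TGI = concentration required for complete inhibition of growth.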

With `COc1cc(Oc2c(O)c(C)c(OC)c(C(C)=O)c2O)c(C(C)=O)c(O)c1C`, the TGI in the assay on SK-OV-3 ovarian is more than 100 µM; in the assay on NCI-H23 lung, 94.9 µM; in the assay with NCI-H226 lung it was more than 100 µM; in the assay on KM12 colon it was more than 100 µM; with SK-MEL-28 melanoma it was more than 100 µM; in the assay with UACC-62 melanoma, more than 100 µM. The TGI in the assay with TK-10 renal is 86.7 µM; in the assay on A549 NSCLC, more than 100 µM; with SR leukemia, more than 100 µM.

Take `Fc1ccc(Nc2nc(NCCNc3ccnc4cc(Cl)ccc34)nc(N3CCOCC3)n2)cc1`: the GI50 with SK-OV-3 ovarian is 11.9 µM; in the assay with NCI-H23 lung it was 14.6 µM; in the assay on NCI-H226 lung, 14.4 µM; in the assay on KM12 colon it was 5.44 µM; in the assay with SK-MEL-28 melanoma it was 1.83 µM; in the assay with UACC-62 melanoma, 2.65 µM. The values for the GI50 in the assay with TK-10 renal, with A549 NSCLC and in the assay with SR leukemia were 10.3 µM, 10.5 µM and 2.44 µM, respectively. The TGI in the assay on SK-OV-3 ovarian was found to be 24.6 µM; in the assay with NCI-H23 lung, 30.2 µM; in the assay with NCI-H226 lung it was 33.4 µM; in the assay with KM12 colon it was 18.7 µM; in the assay on SK-MEL-28 melanoma, 3.25 µM; with UACC-62 melanoma, 7.35 µM. Moreover, the results for the TGI in the assay with TK-10 renal, in the assay on A549 NSCLC and with SR leukemia were 22.7 µM, 25.1 µM and 7.6 µM, respectively.

`CCOC(=O)/C(C#N)=C1\N[C@H](C(=O)OCC)CO1`: the TGI with NCI-H23 lung, in the assay on NCI-H226 lung, in the assay with EKVX NSCLC, in the assay with KM12 colon, with SK-MEL-28 melanoma and in the assay with UACC-62 melanoma was more than 100 µM each time. Besides, the TGI in the assay with A549 NSCLC and in the assay on SR leukemia was more than 100 µM throughout.

Turning to `CC[CH2][Pb]([CH2]CC)([CH2]CC)[NH]S(=O)(=O)c1ccc(C)cc1`, the GI50 in the assay on SK-OV-3 ovarian is 0.0788 µM; in the assay with NCI-H23 lung, 0.0178 µM; in the assay with EKVX NSCLC, 0.0739 µM; in the assay with KM12 colon, 0.147 µM; in the assay on SK-MEL-28 melanoma, 0.0764 µM; in the assay on UACC-62 melanoma, 0.0272 µM. Besides, the GI50 in the assay with TK-10 renal is 0.0971 µM; with A549 NSCLC, 0.0868 µM; in the assay on SR leukemia, 0.0522 µM. Besides, the TGI in the assay with SK-OV-3 ovarian was 0.276 µM; in the assay on NCI-H23 lung it was 0.0375 µM; with EKVX NSCLC, 0.317 µM; in the assay with KM12 colon it was 0.312 µM; with SK-MEL-28 melanoma, 0.241 µM; in the assay on UACC-62 melanoma it was 0.0995 µM. For the same compound, the TGI in the assay on TK-10 renal is 0.36 µM; in the assay with A549 NSCLC, 0.678 µM; with SR leukemia it was 0.279 µM.

On to `C/C=C(/CCCCNCCCC)[Si](C)(C)C`, for which the TGI with SK-OV-3 ovarian came out at 33.6 µM; in the assay with NCI-H23 lung it was 31.9 µM; with EKVX NSCLC, 25.8 µM; with KM12 colon, 30.6 µM; in the assay on SK-MEL-28 melanoma, 29.4 µM; in the assay with UACC-62 melanoma it was 32.7 µM. The TGI in the assay with TK-10 renal was 28.6 µM; with A549 NSCLC, 30.3 µM; with SR leukemia, 35.1 µM.

Turning to `COC(=O)[C@@H]1CCCN1C(=O)[C@@H]1CCCN1C(=O)[C@@H](Cc1c[nH]c2ccccc12)NC(=S)Nc1cc(C(F)(F)F)cc(C(F)(F)F)c1`, the GI50 in the assay with SK-OV-3 ovarian is 47.2 µM; with NCI-H23 lung, 6.35 µM; in the assay with NCI-H226 lung, 7.74 µM; in the assay with KM12 colon, 5.45 µM; in the assay with SK-MEL-28 melanoma, 1.95 µM; with UACC-62 melanoma it was 3.68 µM. The figures for the GI50 in the assay with TK-10 renal, in the assay with A549 NSCLC and in the assay with SR leukemia were 10.9 µM, 5.31 µM and 2.39 µM, respectively. Besides, the TGI in the assay on SK-OV-3 ovarian was more than 100 µM; with NCI-H23 lung, more than 100 µM; with NCI-H226 lung it was more than 100 µM; in the assay with KM12 colon, more than 100 µM; with SK-MEL-28 melanoma it was 4.54 µM; in the assay on UACC-62 melanoma, 20.4 µM. Moreover, the TGI is 87.8 µM with TK-10 renal, more than 100 µM with A549 NSCLC and 6.44 µM in the assay on SR leukemia.

Consider `O=c1[nH]cc(OCC(F)(F)F)c(=O)[nH]1`, for which the TGI in the assay on SK-OV-3 ovarian, in the assay on NCI-H23 lung, with EKVX NSCLC, in the assay on KM12 colon, in the assay on SK-MEL-28 melanoma and with UACC-62 melanoma was more than 100 µM in each case. Besides, the TGI in the assay with TK-10 renal, with A549 NSCLC and with SR leukemia was more than 100 µM each time.

`C[C@H](CS(C)(=O)=O)Nc1ncc2cc(Oc3ccc(F)cc3F)c(=O)n(C)c2n1`: the GI50 with SK-OV-3 ovarian, with NCI-H23 lung, in the assay with NCI-H226 lung, in the assay with KM12 colon, in the assay with SK-MEL-28 melanoma and in the assay on UACC-62 melanoma was more than 25 µM throughout. The GI50 in the assay with TK-10 renal, in the assay on A549 NSCLC and in the assay with SR leukemia was more than 25 µM in each case. Also, the TGI in the assay with SK-OV-3 ovarian, in the assay on NCI-H23 lung, with NCI-H226 lung, with KM12 colon, in the assay on SK-MEL-28 melanoma and with UACC-62 melanoma was more than 25 µM throughout. Moreover, the TGI in the assay with TK-10 renal, in the assay on A549 NSCLC and in the assay with SR leukemia was more than 25 µM throughout.

For `O=C1CC2C(=O)N(Cc3ccccc3)C1C(S(=O)(=O)c1ccccc1)C2S(=O)(=O)c1ccccc1` (stereo unspecified), the TGI came to 31.5 µM in the assay on SK-OV-3 ovarian; 10.7 µM in the assay with NCI-H23 lung; 27.8 µM with NCI-H226 lung; 29.7 µM in the assay on KM12 colon; 3.72 µM with SK-MEL-28 melanoma; 5.22 µM in the assay with UACC-62 melanoma. The TGI in the assay with TK-10 renal was found to be 3.95 µM; in the assay on A549 NSCLC, 33.2 µM; in the assay with SR leukemia, 10.5 µM.

In the case of `COc1cnc2c(c1)C(=O)c1c-2n(CCCN2CCCC2)c(=O)c2cc(Cl)ccc12`, the GI50 is 1.47 µM in the assay with SK-OV-3 ovarian; 0.857 µM in the assay on NCI-H23 lung; 3.27 µM with NCI-H226 lung; 2.18 µM with EKVX NSCLC; 2.11 µM in the assay with KM12 colon; 8.34 µM in the assay on SK-MEL-28 melanoma. The GI50 in the assay on A549 NSCLC was 0.605 µM; in the assay with SR leukemia it was 0.0499 µM. Also, the TGI is 10.5 µM in the assay with SK-OV-3 ovarian; 9.16 µM in the assay on NCI-H23 lung; 14.4 µM in the assay with NCI-H226 lung; 11.3 µM in the assay on EKVX NSCLC; 10.3 µM in the assay on KM12 colon; 16.8 µM with SK-MEL-28 melanoma. In addition, the TGI is 10.2 µM in the assay with A549 NSCLC and 7.9 µM in the assay on SR leukemia.

Turning to `C=C(C)[C@@H]1CC[C@@]2(C)[C@H]1[C@H]1CCC3[C@@]4(C)CC[C@H](O)C(C)(C)[C@@H]4CC[C@@]3(C)[C@]1(C)C[C@@H]2O` (stereo partly specified), the TGI in the assay with NCI-H23 lung, in the assay with NCI-H226 lung, in the assay with EKVX NSCLC, with KM12 colon, with SK-MEL-28 melanoma and in the assay on TK-10 renal was more than 100 µM each time. In addition, the TGI in the assay with A549 NSCLC and in the assay on SR leukemia was more than 100 µM throughout.

Take `COc1ccccc1-c1c(C)nn2c(NCc3ccccn3)cc(C)nc12`: the GI50 is more than 50 µM in the assay with SK-OV-3 ovarian; 48.7 µM with NCI-H23 lung; 40.3 µM in the assay on NCI-H226 lung; more than 46.6 µM with KM12 colon; more than 36.9 µM with SK-MEL-28 melanoma; 16.9 µM in the assay with UACC-62 melanoma. The results for the GI50 with TK-10 renal, in the assay with A549 NSCLC and in the assay on SR leukemia were more than 25.6 µM, 26.7 µM and 17 µM, respectively. Also, the TGI in the assay with SK-OV-3 ovarian, with NCI-H23 lung, in the assay with NCI-H226 lung, in the assay on KM12 colon, with SK-MEL-28 melanoma and in the assay on UACC-62 melanoma was more than 50 µM in each case. For the same compound, the TGI in the assay with TK-10 renal, in the assay with A549 NSCLC and in the assay on SR leukemia was more than 50 µM throughout.

Turning to `FC(F)(F)c1ccc2nc(Nc3ccc(Cl)c(Cl)c3)c(-c3ccccc3)nc2c1`, the TGI with NCI-H23 lung, with NCI-H226 lung, with EKVX NSCLC, in the assay on SK-MEL-28 melanoma, with TK-10 renal and with A549 NSCLC was more than 100 µM in each case. In the assay on SR leukemia, this compound gave a TGI of more than 100 µM.

Consider `Nc1nc(Nc2cccc(F)c2)nc2ccccc12`, for which the GI50 in the assay with SK-OV-3 ovarian is 35.3 µM; with NCI-H23 lung, 24.1 µM; in the assay on NCI-H226 lung, 35 µM; in the assay on KM12 colon it was 18.1 µM; in the assay with SK-MEL-28 melanoma it was 15 µM; with UACC-62 melanoma it was 17.8 µM. Besides, the GI50 is 39.3 µM with TK-10 renal, 36.9 µM with A549 NSCLC and 24.7 µM in the assay with SR leukemia. For the same compound, the TGI is more than 100 µM with SK-OV-3 ovarian; more than 100 µM in the assay with NCI-H23 lung; more than 100 µM in the assay with NCI-H226 lung; 42.4 µM in the assay on KM12 colon; 29 µM in the assay on SK-MEL-28 melanoma; 38.3 µM in the assay on UACC-62 melanoma. Further, the TGI is 90.3 µM in the assay on TK-10 renal, more than 100 µM with A549 NSCLC and 80.7 µM in the assay with SR leukemia.

Take `CS(=O)(=O)Nc1cc(-c2ccc3ncnc(Nc4ccc5c(cnn5Cc5ccc(F)cc5)c4)c3c2)cnc1Cl`: the GI50 in the assay with SK-OV-3 ovarian was 1.54 µM; in the assay on NCI-H23 lung it was 1.43 µM; with NCI-H226 lung, 2.18 µM; in the assay with EKVX NSCLC, 2.21 µM; in the assay on KM12 colon, 2.93 µM; in the assay with SK-MEL-28 melanoma it was 0.803 µM. The figures for the GI50 in the assay on UACC-62 melanoma, in the assay on A549 NSCLC and in the assay with SR leukemia were 0.607 µM, 3.38 µM and 1.71 µM, respectively. In addition, the TGI is 5.85 µM in the assay on SK-OV-3 ovarian; 5.43 µM in the assay with NCI-H23 lung; 11 µM in the assay with NCI-H226 lung; 18.4 µM in the assay with EKVX NSCLC; 9.72 µM with KM12 colon; 7.17 µM in the assay on SK-MEL-28 melanoma. The TGI was found to be 2.98 µM in the assay with UACC-62 melanoma, 63.8 µM in the assay on A549 NSCLC and 6.73 µM in the assay with SR leukemia.
